# Results from publication PMC8705538, “Discovery of SARS-CoV-2 Nsp14 and Nsp16 Methyltransferase Inhibitors by High-Throughput Virtual Screening” (Pharmaceuticals, 2021).
# Like-named read-outs stand apart in the source and are kept apart here.
# Legend:
# SARS-CoV-2 nsp14 = SARS-CoV-2 nsp14 (Severe acute respiratory syndrome coronavirus 2, UniProt P0DTD1); assay: biochemical; conditions: for Ligand Efficiency (LE) nsp14: estimated from IC50 values
# [1] = target: T1, human Glycine N-Methyltransferase (GNMT) (Homo sapiens, UniProt Q14749); assay: HTRF methyltransferase selectivity assay, human GNMT; assay type: biochemical; conditions: for Ligand Efficiency (LE) Human (hMtase): estimated from IC50 values
# T1 construct: purchased MyBioSource MBS636160
# T1 sequence (Q14749 1-295): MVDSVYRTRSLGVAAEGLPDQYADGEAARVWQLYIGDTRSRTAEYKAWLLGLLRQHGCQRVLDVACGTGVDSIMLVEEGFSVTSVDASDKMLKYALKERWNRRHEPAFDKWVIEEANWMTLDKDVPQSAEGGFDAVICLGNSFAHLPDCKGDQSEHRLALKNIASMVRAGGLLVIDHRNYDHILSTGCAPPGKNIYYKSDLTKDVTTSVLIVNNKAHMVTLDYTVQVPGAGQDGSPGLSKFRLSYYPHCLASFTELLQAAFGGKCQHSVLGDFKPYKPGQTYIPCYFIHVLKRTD
# SARS-CoV-2 nsp16/nsp10 = SARS-CoV-2 nsp16/nsp10 (Severe acute respiratory syndrome coronavirus 2, UniProt P0DTD1); assay: biochemical; conditions: for Ligand Efficiency (LE) nsp16: estimated from IC50 values
# [2] = HTRF, SAM 10 µM, GpppG 4 µM, read-out: IC50 nsp14
# [3] = HTRF, SAM 10 µM, glycine 5 mM, read-out: IC50 Human (hMtase, human glycine N-methyltransferase)
# [4] = HTRF, nsp16/nsp10, SAM 10 µM, m7GpppA-RNA, read-out: IC50 nsp16
Compound,"Percent inhibition at 100 μM, nsp14 (SARS-CoV-2 nsp14) [%]","Percent inhibition at 100 μM, Human [1] [%]","Percent inhibition at 100 μM, nsp16 (SARS-CoV-2 nsp16/nsp10) [%]",other results
COc1ccccc1CN1CC(C(=O)NCc2n[nH]c(=O)[nH]2)CCC1=O (stereo not shown) [ZINC000092001674],0 ±7,44 ±8,22 ±12,
Cc1cc(=O)[nH]c(NCCNC(=O)c2cc(-c3cccn3C)n[nH]2)n1 [ZINC000091693861],9 ±6,21 ±6,24 ±4,
NC(=O)CC[C@H](N)C(=O)NS(=O)(=O)OC[C@H]1O[C@@H](n2cnc3c(N)ncnc32)[C@H](O)[C@@H]1O [ZINC000036477981],20 ±3,89 ±8,50 ±11,
CC(=O)N1N=C(c2ccc3c(c2)OCO3)OC1c1cc(-c2ccccc2)nc2ccccc12 (stereo not shown) [ZINC000021941344],12 ±4,45 ±7,36 ±10,
Nc1ncnc2c1ncn2[C@@H]1O[C@H](COC(=O)c2ccc(S(=O)(=O)F)cc2)[C@@H](O)[C@H]1O [ZINC000048222133],58 ±2,87 ±1,42 ±6,"IC50 (SARS-CoV-2 nsp14; [2]): 53 ± 3 µM; Ligand Efficiency (LE) nsp14 (SARS-CoV-2 nsp14): 0.19 kcal/mol; IC50 [1, 3]: 25.3 µM; Ligand Efficiency (LE) Human (hMtase) [1]: 0.20 kcal/mol; IC50 (SARS-CoV-2 nsp16/nsp10; [4]): 105 ± 6 µM; Ligand Efficiency (LE) nsp16 (SARS-CoV-2 nsp16/nsp10): 0.17 kcal/mol"
CN(Cc1cccc2cnccc12)C(=O)CCC1(CCC(=O)O)CCC(=O)N1 (stereo not shown) [ZINC000220483024],-5 ±3,16 ±4,31 ±6,
Nc1ncnc2c1ncn2[C@@H]1O[C@H](C(=O)N2CCN(CC(=O)Nc3cccc4c3CNC4=O)CC2)[C@@H](O)[C@H]1O [ZINC000017654909],62 ±2,98 ±2,65 ±7,"IC50 (SARS-CoV-2 nsp14; [2]): 75 ± 4 µM; Ligand Efficiency (LE) nsp14 (SARS-CoV-2 nsp14): 0.14 kcal/mol; IC50 [1, 3]: 22.8 µM; Ligand Efficiency (LE) Human (hMtase) [1]: 0.16 kcal/mol; IC50 (SARS-CoV-2 nsp16/nsp10; [4]): 75 ± 4 µM; Ligand Efficiency (LE) nsp16 (SARS-CoV-2 nsp16/nsp10): 0.14 kcal/mol"
COc1cc(NC(=O)C2CCN(Cc3nc(-c4cccc(C)c4)no3)CC2)c(OC)cc1Cl [ZINC000030974583],19 ±1,48 ±8,45 ±11,
O=C(CCCn1cnc2ccccc2c1=O)Nc1ccc2ncnc(O)c2c1 [ZINC000096114839],28 ±7,83 ±6,17 ±5,
CC(=O)N1N=C(c2ccc3c(c2)OCO3)CC1c1cn(-c2ccccc2)nc1C (stereo not shown) [ZINC000012821397],27 ±5,-5 ±2,15 ±5,
Nc1ncnc2c1ncn2[C@@H]1O[C@H](C(=O)NC2CC2)[C@@H](O)[C@H]1O [ZINC000004475116],32 ±6,56 ±1,54 ±10,
CN(CCNc1nc2c(c(=O)[nH]1)Cc1ccccc1OC2)S(C)(=O)=O [Compound 028-736-920],8 ±5,42 ±2,-4 ±3,
NC1=NC(c2ccccc2)n2c(nc(=O)c3ccccc32)N1 (stereo not shown) [ZINC000008994271],19 ±10,-3 ±6,39 ±3,
Cc1nc(O)cc(CNc2nc3c(c(=O)[nH]2)Cc2ccccc2OC3)n1 [ZINC000095519272],49 ±17,70 ±3,57 ±13,"IC50 (SARS-CoV-2 nsp14; [2]): ~200 µM; Ligand Efficiency (LE) nsp14 (SARS-CoV-2 nsp14): 0.19 kcal/mol; IC50 [1, 3]: 53 ± 3 µM; Ligand Efficiency (LE) Human (hMtase) [1]: 0.22 kcal/mol; IC50 (SARS-CoV-2 nsp16/nsp10; [4]): 95 ± 4 µM; Ligand Efficiency (LE) nsp16 (SARS-CoV-2 nsp16/nsp10): 0.21 kcal/mol"
O=C(CSc1nc(CC(=O)Nc2cccc3nsnc23)cs1)Nc1ccc(F)cc1 [Compound 009-741-602],25 ±2,24 ±7,45 ±5,
"Nc1ncnc2c1ncn2[C@@H]1O[C@H](CSCC[C@H](N)C(=O)O)[C@@H](O)[C@H]1O [S-(5′-Adenosyl)-L-homocysteine (SAH), S-(5′-Adenosyl)-L-homocysteine, reference compound]",,,,IC50 (SARS-CoV-2 nsp14): 0.14 µM; Ligand Efficiency (LE) nsp14 (SARS-CoV-2 nsp14): 0.33 kcal/mol; IC50 [1]: 1.7 µM; Ligand Efficiency (LE) Human (hMtase) [1]: 0.28 kcal/mol; IC50 (SARS-CoV-2 nsp16/nsp10): 0.28 µM; Ligand Efficiency (LE) nsp16 (SARS-CoV-2 nsp16/nsp10): 0.32 kcal/mol
CN(CC1CCN(c2ccccc2)C1)S(=O)(=O)c1ccc2[nH]c(=O)oc2c1 (stereo not shown) [ZINC000952973746],27 ±9,41 ±1,38 ±6,
Cc1ncsc1CCC(=O)N1CCCC(C(=O)c2ccc3c4c(cccc24)CC3)C1 (stereo not shown) [ZINC000012755219],9 ±5,61 ±4,40 ±8,

Compound,"Percent inhibition at 100 μM, nsp14 (SARS-CoV-2 nsp14) [%]","Percent inhibition at 100 μM, Human [1] [%]","Percent inhibition at 100 μM, nsp16 (SARS-CoV-2 nsp16/nsp10) [%]",other results
CC(C(=O)NCCCn1ccnn1)c1n[nH]c(=O)c2ccccc12 (stereo not shown) [ZINC000215108606],9 ±3,22 ±6,40 ±6,
CCOc1ccccc1OCC(=O)N1CCCC(c2nc3ccccc3s2)C1 (stereo not shown) [Compound 005-679-672],6 ±0,,-59 ±2,
NS(=O)(=O)c1ccc(NC(=O)COC(=O)c2n[nH]c3ccccc23)cc1 [ZINC000005360401],-15 ±7,,3 ±1,
O=C(CCc1n[nH]c2c1CCCC2)NCc1cc(O)ncn1 [ZINC000952975967],2 ±7,,-24 ±4,
CC(=O)c1cnc(NC(C)c2nnc(CC(=O)O)[nH]2)nc1C (stereo not shown) [ZINC1772709012],16 ±13,,32 ±8,
CC(C)(C)c1csc(SCC(=O)Nc2cccc3nsnc23)n1 [Compound 009-639-090],16 ±1,61 ±9,43 ±7,
Cc1ccccc1NC(=O)c1nnn2c1NC(C(=O)O)=CC2c1ccc(C(=O)O)cc1 (stereo not shown) [ZINC000072333096],25 ±10,17 ±4,33 ±12,
CCN(CCSc1ccccc1)C(=O)c1cc(-c2ccncc2)n[nH]1 [ZINC000097636636],5 ±2,-46 ±2,19 ±7,
O=C(CCc1ccc(O)cc1)NC(c1ccc2c(c1)CCO2)C1CC(O)C1 (stereo not shown) [ZINC000220681335],0 ±2,,10 ±5,
CN(C)c1nc2c(c(N(C)C)n1)CCN(C(=O)[C@@H](N)Cc1ccc(O)cc1)C2 [ZINC000071682020],12 ±5,,9 ±8,
NC(=O)Cn1cnc2c(cnn2CCO)c1=O [ZINC000004940485],2 ±0,,6 ±6,
Cc1nc2ccc(Cl)cc2cc1C(=O)Nc1ccc(C(N)=O)cc1 [ZINC000019718669],49 ±16,52 ±4,66 ±9,
CC(C)N(CC1OC(n2cnc3c(N)ncnc32)C(O)C1O)C1CC(CCc2nc3cc(C(C)(C)C)ccc3[nH]2)C1 (stereo not shown) [ZINC000100074350],30 ±4,,68 ±7,
CC(=O)c1cccc(OCc2cc(C(=O)NCC(N)=O)n[nH]2)c1 [ZINC000067920483],2 ±2,,-1 ±3,
O=C(c1ccc2c3c([nH]c2c1)CCCC3)N1CCC[C@H]1c1nc(-c2ccncc2)no1 [ZINC000952966781],11 ±10,,24 ±5,
CC(C)CC(C(=O)OCC(=O)Nc1cccc(Cl)c1)N1C(=O)C2CC=CCC2C1=O (stereo not shown) [ZINC000019078629],8 ±3,,37 ±9,
O=C(Cn1ccc(=O)c2ccccc21)NCCSc1cnn[nH]1 [ZINC000218615582],21 ±3,55 ±2,51 ±4,
